In patent US20260028326A1, “COMPOUND BASED ON ISOINDOLINE-SUBSTITUTED GLUTARIMIDE BACKBONE AND USE THEREOF” (GLUETACS THERAPEUTICS (SHANGHAI) CO., LTD., priority 2022, published 2026):

Key:
[1] = biological target: IKZF1 protein (Homo sapiens (Human), UniProt Q13422+Q96SW2); experiment: Western-blot assay of substrate protein degradation in hPBMC, IKZF1; type: cell-based; settings: for residual substrate protein level, IKZF1: hPBMC cells, compound 500 nM, 24 hours, Western blot
[2] = biological target: IKZF3 protein (Homo sapiens (Human), UniProt Q96SW2+Q9UKT9); experiment: Western-blot assay of substrate protein degradation in hPBMC, IKZF3; type: cell-based; settings: for residual substrate protein level, IKZF3: hPBMC cells, compound 500 nM, 24 hours, Western blot
[3] = biological target: GSPT1 protein (Homo sapiens (Human), UniProt P15170+Q96SW2); experiment: Western-blot assay of substrate protein degradation in hPBMC, GSPT1; type: cell-based; settings: for residual substrate protein level, GSPT1: hPBMC cells, compound 500 nM, 24 hours, Western blot
[4] = system: MM.1S cells; experiment: Tumor cell proliferation IC50 (CCK-8), MM.1S; settings: Homo sapiens, MM1.S, 72 h, read-out: IC50 for inhibiting the proliferation of tumor cells, MM.1S;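 further: viability of cultured cells read by CCK-8 reagent after compound exposure, growth inhibition curves fitted to derive IC50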
[5] = system: CCRF-CEM cells; experiment: Tumor cell proliferation IC50 (CCK-8), CCRF-CEM; settings: Homo sapiens, 96 h, read-out: IC50 for inhibiting the proliferation of tumor cells, CCRF-CEM;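 further: cell viability measured with CCK-8 reagent after compound treatment, IC50 taken from plotted growth inhibition curves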
Method: (§1) The tumor cells used herein were cultured in a cell culture medium listed in table A at 37° C. in an incubator with 5% CO2.
(§2) After the cells were treated with the compounds of the present disclosure for a period of time, the cell viability detection reagent was added to the culture medium for cell viability assessment according to the instructions provided with the CCK-8 kit. […] The growth inhibition of the compounds of the present disclosure on cells was plotted by Prism Graphpad software, and the IC50 values of the compounds of the present disclosure were calculated therefrom.

[6] = biological target: human Cereblon WT GST-tagged protein (Homo sapiens (Human), UniProt Q96SW2); experiment: CRBN-binding affinity, HTRF (CEREBLON BINDING kit)
How it was run: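 GST-tagged human WT Cereblon incubated with compound, then Thalidomide-Re tracer and anti-GST Eu antibody added. Displacement read by HTRF, reported as CRBN binding inhibition rate against blank control wells without protein.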

[7] = system: Mino cells; experiment: Tumor cell proliferation IC50 (CCK-8), Mino; settings: Homo sapiens, 72 h, read-out: IC50 for inhibiting the proliferation of tumor cells, Mino;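 further: cell viability assessed with CCK-8 reagent after compound exposure, IC50 derived from plotted growth inhibition curves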
Method: as §1, §2

[8] = hPBMC, 24 h, serially diluted 0.03-1000 nM

IKZF1 protein, sequence (Q13422 whole entry): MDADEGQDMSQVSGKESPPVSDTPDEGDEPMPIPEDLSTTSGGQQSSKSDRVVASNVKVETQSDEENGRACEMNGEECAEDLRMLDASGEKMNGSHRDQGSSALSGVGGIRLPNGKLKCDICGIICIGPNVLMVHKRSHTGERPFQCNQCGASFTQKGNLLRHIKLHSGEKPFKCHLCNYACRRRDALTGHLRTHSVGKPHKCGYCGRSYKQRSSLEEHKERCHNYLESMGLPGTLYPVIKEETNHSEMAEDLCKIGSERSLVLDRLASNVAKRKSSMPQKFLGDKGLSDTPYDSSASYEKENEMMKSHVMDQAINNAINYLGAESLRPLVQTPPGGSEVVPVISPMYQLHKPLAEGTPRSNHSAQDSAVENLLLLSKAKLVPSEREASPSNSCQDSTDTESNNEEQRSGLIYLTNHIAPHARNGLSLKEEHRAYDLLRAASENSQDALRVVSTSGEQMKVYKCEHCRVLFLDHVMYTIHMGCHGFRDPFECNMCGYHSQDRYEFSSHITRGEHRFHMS
IKZF1 protein, sequence (Q96SW2 whole entry): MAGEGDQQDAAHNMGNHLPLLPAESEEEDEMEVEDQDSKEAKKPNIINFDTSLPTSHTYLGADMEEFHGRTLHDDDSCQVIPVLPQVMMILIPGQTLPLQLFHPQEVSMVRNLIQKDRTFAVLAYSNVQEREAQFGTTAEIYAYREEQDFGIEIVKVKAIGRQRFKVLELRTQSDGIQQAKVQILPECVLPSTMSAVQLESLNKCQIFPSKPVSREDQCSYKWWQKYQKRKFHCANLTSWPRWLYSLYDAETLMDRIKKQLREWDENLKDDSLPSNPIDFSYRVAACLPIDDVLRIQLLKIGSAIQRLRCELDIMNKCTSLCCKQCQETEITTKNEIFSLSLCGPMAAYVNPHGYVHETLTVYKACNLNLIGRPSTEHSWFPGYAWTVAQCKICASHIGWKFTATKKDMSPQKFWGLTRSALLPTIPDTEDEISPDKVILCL
IKZF1 protein, sequence (Q16531 whole entry partner): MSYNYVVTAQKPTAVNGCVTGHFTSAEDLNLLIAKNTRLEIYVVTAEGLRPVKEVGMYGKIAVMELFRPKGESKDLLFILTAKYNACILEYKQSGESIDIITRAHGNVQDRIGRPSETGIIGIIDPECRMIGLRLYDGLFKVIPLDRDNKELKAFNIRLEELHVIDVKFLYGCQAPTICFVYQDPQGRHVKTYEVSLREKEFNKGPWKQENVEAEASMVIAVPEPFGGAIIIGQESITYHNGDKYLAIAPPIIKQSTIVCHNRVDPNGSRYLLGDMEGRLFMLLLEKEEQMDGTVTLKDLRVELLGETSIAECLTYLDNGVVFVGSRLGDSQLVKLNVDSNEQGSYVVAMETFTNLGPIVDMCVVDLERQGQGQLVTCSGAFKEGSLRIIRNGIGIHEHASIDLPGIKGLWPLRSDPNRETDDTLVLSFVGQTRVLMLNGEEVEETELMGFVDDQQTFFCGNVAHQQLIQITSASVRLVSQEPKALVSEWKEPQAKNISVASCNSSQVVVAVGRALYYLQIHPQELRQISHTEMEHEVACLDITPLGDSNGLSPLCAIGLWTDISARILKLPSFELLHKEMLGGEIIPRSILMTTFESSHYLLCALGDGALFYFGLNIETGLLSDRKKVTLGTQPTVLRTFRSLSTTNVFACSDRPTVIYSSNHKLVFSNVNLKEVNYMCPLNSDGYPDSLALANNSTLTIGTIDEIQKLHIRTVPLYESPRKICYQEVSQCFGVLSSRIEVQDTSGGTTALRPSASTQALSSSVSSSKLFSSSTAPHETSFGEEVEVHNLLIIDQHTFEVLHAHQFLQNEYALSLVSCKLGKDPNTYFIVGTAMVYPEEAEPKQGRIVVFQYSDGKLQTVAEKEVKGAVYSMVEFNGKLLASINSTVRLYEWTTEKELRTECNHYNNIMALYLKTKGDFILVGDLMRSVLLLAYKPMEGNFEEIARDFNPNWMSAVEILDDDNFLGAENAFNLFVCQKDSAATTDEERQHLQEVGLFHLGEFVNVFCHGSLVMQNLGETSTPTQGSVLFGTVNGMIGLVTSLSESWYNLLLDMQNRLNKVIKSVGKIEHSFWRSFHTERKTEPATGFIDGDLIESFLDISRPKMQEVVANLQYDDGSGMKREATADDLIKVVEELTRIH
IKZF3 protein, sequence (Q9UKT9 whole entry): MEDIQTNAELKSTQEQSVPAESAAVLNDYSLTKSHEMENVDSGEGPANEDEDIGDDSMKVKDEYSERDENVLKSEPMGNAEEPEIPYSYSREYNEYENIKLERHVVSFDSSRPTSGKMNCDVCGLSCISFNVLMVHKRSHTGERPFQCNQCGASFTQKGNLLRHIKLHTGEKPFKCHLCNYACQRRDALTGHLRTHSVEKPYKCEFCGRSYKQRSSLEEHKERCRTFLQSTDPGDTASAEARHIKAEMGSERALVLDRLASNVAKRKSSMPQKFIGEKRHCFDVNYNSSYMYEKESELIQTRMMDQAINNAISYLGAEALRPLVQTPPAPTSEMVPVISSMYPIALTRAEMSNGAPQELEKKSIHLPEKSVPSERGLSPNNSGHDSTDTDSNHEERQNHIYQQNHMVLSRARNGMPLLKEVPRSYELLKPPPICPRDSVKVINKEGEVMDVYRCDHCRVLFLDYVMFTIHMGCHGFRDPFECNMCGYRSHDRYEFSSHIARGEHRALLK
IKZF3 protein, sequence (Q96SW2 whole entry): as the sequence (Q96SW2 whole entry) above
IKZF3 protein, sequence (Q16531 whole entry partner): as the sequence (Q16531 whole entry partner) above
GSPT1 protein, sequence (P15170 whole entry): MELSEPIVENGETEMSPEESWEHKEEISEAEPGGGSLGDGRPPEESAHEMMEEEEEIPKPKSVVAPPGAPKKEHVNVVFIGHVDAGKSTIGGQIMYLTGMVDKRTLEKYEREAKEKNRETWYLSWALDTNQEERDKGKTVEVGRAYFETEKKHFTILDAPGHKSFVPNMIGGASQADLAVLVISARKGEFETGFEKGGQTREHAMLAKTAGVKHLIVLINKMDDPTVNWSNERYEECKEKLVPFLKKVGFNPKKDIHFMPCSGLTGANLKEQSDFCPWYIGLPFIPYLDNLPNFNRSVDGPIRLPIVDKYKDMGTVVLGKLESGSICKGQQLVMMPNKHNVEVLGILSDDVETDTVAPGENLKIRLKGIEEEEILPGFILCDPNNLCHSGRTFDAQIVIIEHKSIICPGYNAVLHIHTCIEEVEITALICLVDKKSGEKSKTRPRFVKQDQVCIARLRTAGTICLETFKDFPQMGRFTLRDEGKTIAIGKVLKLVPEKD
GSPT1 protein, sequence (Q96SW2 whole entry): as the sequence (Q96SW2 whole entry) above
GSPT1 protein, sequence (Q16531 whole entry partner): as the sequence (Q16531 whole entry partner) above
human Cereblon WT GST-tagged protein, sequence (Q96SW2 whole entry): as the sequence (Q96SW2 whole entry) above

Structure (SMILES) | IC50 [4] [µM] | IC50 [5] [µM] | IC50 [6] [µM] | IC50 [7] [µM] | concentration at which significant degradation effects on IKZF1 protein are exhibited (FIG. 1) [1, 8] [nM] | concentration at which significant degradation effects on IKZF3 protein are exhibited (FIG. 1) [2, 8] [nM] | concentration at which significant degradation effects on GSPT1 protein are exhibited (FIG. 1) [3, 8] [nM] | residual substrate protein level, IKZF1 [1] | residual substrate protein level, IKZF3 [2] | residual substrate protein level, GSPT1 [3]
CC1(C)CCC(CN2CCN(Cc3ccc4c(c3)C(=O)N(C3CCC(=O)NC3=O)C4=O)CC2)=C(c2ccc(Cl)cc2)C1 (centres unmarked) [GT-05364, 5-((4-((4′-chloro-5,5-dimethyl-3,4,5,6-tetrahydro-[1,1′-biphenyl]-2-yl)methyl)piperazin-1-yl)methyl)-2-(2,6-dioxopiperidin-3-yl)isoindoline-1,3-dione] | 0.1 to 0.5 | 0.1 to 0.5 |  |  |  |  |  | A (A represents a residual substrate protein level of <50%) | A (A represents a residual substrate protein level of <50%) | A (A represents a residual substrate protein level of <50%)
CC1(C)CCC(C(=O)N2CCN(Cc3cc4c(cc3F)C(=O)N(C3CCC(=O)NC3=O)C4)CC2)=C(c2ccc(Cl)cc2)C1 (centres unmarked) [GT-05526, 3-(5-((4-(4′-chloro-5,5-dimethyl-3,4,5,6-tetrahydro-[1,1′-biphenyl]-2-carbonyl)piperazin-1-yl)methyl)-6-fluoro-1-oxoisoindolin-2-yl)piperidine-2,6-dione] |  | 0.5 to 1 | 0.69 |  |  |  |  | B (B represents a residual substrate protein level of >50%) | B (B represents a residual substrate protein level of >50%) | A (A represents a residual substrate protein level of <50%)
O=C1CCC(N2Cc3cc(CN4CC5CCC(C4)N5C(=O)c4ccccc4-c4ccc(Cl)cc4)ccc3C2=O)C(=O)N1 (centres unmarked) [GT-05542, 3-(5-((8-(4′-chloro-[1,1′-biphenyl]-2-carbonyl)-3,8-diazabicyclo[3.2.1]octan-3-yl)methyl)-1-oxoisoindolin-2-yl)piperidine-2,6-dione] | 0.01 to 0.05 | 0.01 to 0.05 | 0.44 | < 0.005 |  |  |  |  |  | 
O=C1CCC(N2Cc3cc(CN4CC5(CCN(C(=O)c6ccccc6-c6ccc(Cl)cc6)CC5)C4)ccc3C2=O)C(=O)N1 (centres unmarked) [GT-05620, 3-(5-((7-(4′-chloro-[1,1′-biphenyl]-2-carbonyl)-2,7-diazaspiro[3.5]nonan-2-yl)methyl)-1-oxoisoindolin-2-yl)piperidine-2,6-dione] | 0.01 to 0.05 | 0.1 to 0.5 | 0.59 | 0.1 to 0.5 | < 3 | < 3 | < 3 |  |  | 
O=C1CCC(N2Cc3cc(C(=O)N4CC5CN(Cc6ccccc6-c6ccc(Cl)cc6)CC5C4)ccc3C2=O)C(=O)N1 (centres unmarked) [GT-05642, 3-(5-(5-((4′-chloro-[1,1′-biphenyl]-2-yl)methyl)octahydropyrrolo[3,4-c]pyrrole-2-carbonyl)-1-oxoisoindolin-2-yl)piperidine-2,6-dione] | 0.1 to 0.5 | 0.05 to 0.1 | 0.49 |  |  |  |  | B (B represents a residual substrate protein level of >50%) | B (B represents a residual substrate protein level of >50%) | A (A represents a residual substrate protein level of <50%)
O=C1CCC(N2Cc3cc(C(=O)N4CCC(Nc5ccccc5-c5ccc(Cl)cc5)CC4)ccc3C2=O)C(=O)N1 (centres unmarked) [GT-05646, 3-(5-(4-((4′-chloro-[1,1′-biphenyl]-2-yl)amino)piperidine-1-carbonyl)-1-oxoisoindolin-2-yl)piperidine-2,6-dione] | 0.1 to 0.5 | 0.1 to 0.5 | 1.02 |  |  |  |  | B (B represents a residual substrate protein level of >50%) | B (B represents a residual substrate protein level of >50%) | A (A represents a residual substrate protein level of <50%)
O=C1CCC(N2Cc3c(ccc(CN4CCN(C(=O)c5ccccc5-c5ccc(Cl)cc5)CC4)c3F)C2=O)C(=O)N1 (centres unmarked) [GT-05649, 3-(5-((4-(4′-chloro-[1,1′-biphenyl]-2-carbonyl)piperazin-1-yl)methyl)-4-fluoro-1-oxoisoindolin-2-yl)piperidine-2,6-dione] | 0.1 to 0.5 |  | 0.68 | 0.1 to 0.5 |  |  |  | B (B represents a residual substrate protein level of >50%) | A (A represents a residual substrate protein level of <50%) | B (B represents a residual substrate protein level of >50%)
CC1(C)CCC(C(=O)N2CC3(CN(Cc4ccc5c(c4)CN(C4CCC(=O)NC4=O)C5=O)C3)C2)=C(c2ccc(Cl)cc2)C1 (centres unmarked) [GT-05681, 3-(5-((6-(4′-chloro-5,5-dimethyl-3,4,5,6-tetrahydro-[1,1′-biphenyl]-2-carbonyl)-2,6-diazaspiro[3.3]heptan-2-yl)methyl)-1-oxoisoindolin-2-yl)piperidine-2,6-dione] | 0.05 to 0.1 | 0.1 to 0.5 | 0.46 | 0.1 to 0.5 |  |  |  | B (B represents a residual substrate protein level of >50%) | A (A represents a residual substrate protein level of <50%) | A (A represents a residual substrate protein level of <50%)
Cn1nccc1-c1ccccc1CN1CCN(Cc2ccc3c(c2)CN(C2CCC(=O)NC2=O)C3=O)CC1 (centres unmarked) [GT-05702, 3-(5-((4-(2-(1-methyl-1H-pyrazol-5-yl)benzyl)piperazin-1-yl)methyl)-1-oxoisoindolin-2-yl)piperidine-2,6-dione] | 0.1 to 0.5 |  | 0.61 | 0.5 to 1 |  |  |  | A (A represents a residual substrate protein level of <50%) | A (A represents a residual substrate protein level of <50%) | A (A represents a residual substrate protein level of <50%)
O=C1CCC(N2Cc3cc(CN4CCN(Cc5ccccc5-c5ccc(Cl)cc5)CC4C(F)(F)F)ccc3C2=O)C(=O)N1 (centres unmarked) [GT-05711, 3-(5-((4-((4′-chloro-[1,1′-biphenyl]-2-yl)methyl)-2-(trifluoromethyl)piperazin-1-yl)methyl)-1-oxoisoindolin-2-yl)piperidine-2,6-dione] |  | 0.1 to 0.5 | 0.49 |  |  |  |  |  |  | 

Now from value to molecule, other results behind:

IC50 [4] [µM] | IC50 [5] [µM] | IC50 [6] [µM] | IC50 [7] [µM] | concentration at which significant degradation effects on IKZF1 protein are exhibited (FIG. 1) [1, 8] [nM] | concentration at which significant degradation effects on IKZF3 protein are exhibited (FIG. 1) [2, 8] [nM] | concentration at which significant degradation effects on GSPT1 protein are exhibited (FIG. 1) [3, 8] [nM] | Structure (SMILES) | residual substrate protein level, IKZF1 [1] | residual substrate protein level, IKZF3 [2] | residual substrate protein level, GSPT1 [3]
0.01 to 0.05 | 0.05 to 0.1 | 0.57 | 0.01 to 0.05 |  |  |  | CC1(C)CCC(CN2CCN(Cc3ccc4c(c3)CN(C3CCC(=O)NC3=O)C4=O)CC2)=C(c2ccco2)C1 (centres unmarked) [GT-05790, 3-(5-((4-((2-(furan-2-yl)-4,4-dimethylcyclohex-1-en-1-yl)methyl)piperazin-1-yl)methyl)-1-oxoisoindolin-2-yl)piperidine-2,6-dione] |  |  | 
0.1 to 0.5 | 0.1 to 0.5 |  | 0.1 to 0.5 |  |  |  | Cc1ccc(C2=C(CN3CCN(Cc4ccc5c(c4)C(=O)N(C4CCC(=O)NC4=O)C5=O)CC3)CCC(C)(C)C2)cc1 (centres unmarked) [GT-05793, 2-(2,6-dioxopiperidin-3-yl)-5-((4-((4′,5,5-trimethyl-3,4,5,6-tetrahydro-[1,1′-biphenyl]-2-yl)methyl)piperazin-1-yl)methyl)isoindoline-1,3-dione] | B (B represents a residual substrate protein level of >50%) | A (A represents a residual substrate protein level of <50%) | A (A represents a residual substrate protein level of <50%)
0.05 to 0.1 |  | 0.71 | 0.05 to 0.1 |  |  |  | CC1(C)CCC(CN2CCN(Cc3ccc4c(c3)CN(C3CCC(=O)NC3=O)C4=O)CC2)=C(c2cnco2)C1 (centres unmarked) [GT-05848, 3-(5-((4-((4,4-dimethyl-2-(oxazol-5-yl)cyclohex-1-en-1-yl)methyl)piperazin-1-yl)methyl)-1-oxoisoindolin-2-yl)piperidine-2,6-dione] | A (A represents a residual substrate protein level of <50%) | A (A represents a residual substrate protein level of <50%) | B (B represents a residual substrate protein level of >50%)
0.1 to 0.5 |  | 0.99 | 0.1 to 0.5 |  |  |  | O=C1CCC(N2Cc3cc(CN4CCN(Cc5ccccc5-c5cnco5)CC4)ccc3C2=O)C(=O)N1 (centres unmarked) [GT-05849, 3-(5-((4-(2-(oxazol-5-yl)benzyl)piperazin-1-yl)methyl)-1-oxoisoindolin-2-yl)piperidine-2,6-dione] | A (A represents a residual substrate protein level of <50%) | A (A represents a residual substrate protein level of <50%) | A (A represents a residual substrate protein level of <50%)
 | 0.5 to 1 |  |  |  |  |  | CC1(C)CCC(CN2CCN(Cc3cc4c(cc3F)C(=O)N(C3CCC(=O)NC3=O)C4)C(C(F)(F)F)C2)=C(c2ccc(Cl)cc2)C1 (centres unmarked) [GT-06101, 3-(5-((4-((4′-chloro-5,5-dimethyl-3,4,5,6-tetrahydro-[1,1′-biphenyl]-2-yl)methyl)-2-(trifluoromethyl)piperazin-1-yl)methyl)-6-fluoro-1-oxoisoindolin-2-yl)piperidine-2,6-dione] |  |  | 
